SMILES strings stand for the structures.

The target of the test is T1, purified BACE protein (β-secretase) (Homo sapiens, UniProt P56817).
T1 construct: made in house
T1 sequence (P56817 46-501): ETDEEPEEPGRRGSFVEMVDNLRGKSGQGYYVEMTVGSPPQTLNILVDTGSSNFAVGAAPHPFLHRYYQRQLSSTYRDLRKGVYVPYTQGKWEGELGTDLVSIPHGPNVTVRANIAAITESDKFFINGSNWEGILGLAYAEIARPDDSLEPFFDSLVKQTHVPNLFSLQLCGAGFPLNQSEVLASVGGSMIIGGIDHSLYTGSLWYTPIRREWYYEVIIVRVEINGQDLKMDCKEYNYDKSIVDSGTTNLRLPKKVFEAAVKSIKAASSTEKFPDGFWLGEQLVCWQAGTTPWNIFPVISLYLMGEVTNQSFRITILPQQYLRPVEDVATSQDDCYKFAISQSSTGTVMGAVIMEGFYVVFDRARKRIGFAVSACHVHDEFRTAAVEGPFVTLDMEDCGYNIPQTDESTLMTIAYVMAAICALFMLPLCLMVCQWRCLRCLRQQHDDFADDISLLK
In words: Competitive Radioligand Binding Assay (RLBA). Particulars: β-secretase inhibition; displacement of tritiated Compound A tracer from plate-coated BACE, binding buffer pH 4.1; read-out: IC50 in vitro. As for the experimental part: Competitive Radioligand Binding Assay (RLBA)
96 well microplates (Optiplate Packard) are coated with purified BACE protein (see e.g. GB 2,385,124: Examples 1 and 2) using a concentration of 1 μg/ml in 30 mM sodium citrate buffer adjusted to pH 5.5. The coating is achieved by incubation of 100 μl/well for 1-3 days at 4° C. The plate is then washed with 2×300 μl/well of 10 mM citrate pH 4.1. To each well 100 μl binding buffer (30 mM citrate, 100 mM NaCl, 0.1% BSA, pH 4.1) is dispensed. The test compound is added in 5 μl from a DMSO stock solution or appropriate dilutions. To this the tracer (tritiated Compound A, see e.g. GB 2,385,124: Example 4) is added in 10 μl/well from a 10 μCi/ml stock solution in binding buffer. After incubation for 1.5-2 hours in a humid chamber at ambient temperature the plate is washed with 2×300 μl/well water and flipped on a dry towel. Following the addition of 50 μl/well MicroScint20 (Packard) the plate is sealed and vibrated for 5 seconds. The bound radioactivity is counted on a Topcount (Packard). Total binding is typically between 2000 and 10000 cpm/well depending mainly on the purity and concentration of the BACE protein. Non-specific binding as assessed by competition with >1 μM peptidic inhibitor (Bachem #H-4848) is typically between 30 and 300 cpm/well. The IC-50 values are calculated by Microsoft Excel FIT.
With `O=C(CCCC1CCCCC1)C1=C(O)C(CCc2ccccc2)OC1=O` (racemic) [Example E7, Rac-3-(4-cyclohexyl-butyryl)-4-hydroxy-5-phenethyl-5H-furan-2-one], the IC50 (in general, the point on the concentration scale where inhibition reaches its midpoint) came out at 57 µM.

`O=C(Cn1c2ccccc2c2ccccc21)C1=C(O)C(CCc2ccccc2)NC1=O` (stereo not drawn) [Example K46, 3-(Carbazol-9-yl-acetyl)-4-hydroxy-5-phenethyl-1,5-dihydro-pyrrol-2-one]: the half-inhibitory concentration (IC50) came to 36 µM.

On to `CC1(CCc2ccccc2)OC(=O)C(C(=O)CC2c3ccccc3-c3ccccc32)=C1O` (stereo not drawn) [Example I7, 3-[(9H-Fluoren-9-yl)-acetyl]-4-hydroxy-5-methyl-5-phenethyl-5H-furan-2-one], for which the IC50 was determined as 31 µM.

As for `NC(Cc1ccc(OCc2ccccc2)cc1)C(=O)C1=C(O)C(CCc2ccccc2)NC1=O` (stereo not drawn) [Example K38, 3-[2-Amino-3-(4-benzyloxy-phenyl)-propionyl]-4-hydroxy-5-phenethyl-1,5-dihydro-pyrrol-2-one; compound with trifluoro-acetic acid], the IC50 turned out to be 16 µM.

As to `O=C(Cc1cn(Cc2ccc(F)cc2)c2ccccc12)C1=C(O)C(CC2CCCCC2)OC1=O` (stereo not drawn) [Example C19, 5-Cyclohexylmethyl-3-{[1-(4-fluoro-benzyl)-1H-indol-3-yl]-acetyl}-4-hydroxy-5H-furan-2-one], the half-inhibitory concentration (IC50) was determined as 15 µM.

In the case of `O=C(Cc1c[nH]c2ccccc12)C1=C(O)C(CCCc2ccccc2)OC1=O` (stereo not drawn) [Example F5, 4-Hydroxy-3-[(H-indol-3-yl)-acetyl]-5-(3-phenyl-propyl)-5H-furan-2-one], the IC50 was 14 µM.

As to `O=C(CC(c1ccccc1)c1ccccc1)C1=C(O)C(CCc2ccccc2)(c2ccccc2)OC1=O` (stereo not drawn) [Example J4, 3-(3,3-Diphenyl-propionyl)-4-hydroxy-5-phenethyl-5-phenyl-5H-furan-2-one], the half-inhibitory concentration (IC50) turned out to be 41 µM.

As to `O=C(CC(c1ccccc1)c1ccccc1)C1=C(O)C(CCCN2CCOCC2)OC1=O` (stereo not drawn) [Example G29, 3-(3,3-Diphenyl-propionyl)-4-hydroxy-5-(3-morpholin-4-yl-propyl)-5H-furan-2-one], the IC50 was 85 µM.

With `COc1ccc(Cl)cc1C(=O)NCCc1ccc(CC(C)C(=O)C2=C(O)C(CC3CCCCC3)OC2=O)cc1` (stereo not drawn) [Example C12, 5-Chloro-N-(2-{4-[3-(5-cyclohexylmethyl-4-hydroxy-2-oxo-2,5-dihydro-furan-3-yl)-2-methyl-3-oxo-propyl]-phenyl}-ethyl)-2-methoxy-benzamide], the IC50 came out at 12 µM.

For the compound `CC(Cc1ccc(OCc2ccccc2)cc1)C(=O)C1=C(O)C(CC2CCCCC2)OC1=O` (stereo not drawn) [Example C9, 3-[3-(4-Benzyloxy-phenyl)-2-methyl-propionyl]-5-cyclohexylmethyl-4-hydroxy-5H-furan-2-one], the 50% inhibitory concentration (IC50) was found to be 13 µM.

For the compound `CC(Cc1ccc(C(C)(C)C)cc1)C(=O)C1=C(O)C(Cc2ccccc2)OC1=O` (stereo not drawn) [Example D2, 5-Benzyl-3-[3-(4-tert-butyl-phenyl)-2-methyl-propionyl]-4-hydroxy-5H-furan-2-one], the IC50 amounted to 33 µM.

Turning to `O=C(Cn1c2ccccc2c2ccccc21)C1=C(O)C(CC2CCCCC2)OC1=O` (stereo not drawn) [Example C33, 3-(Carbazol-9-yl-acetyl)-5-cyclohexylmethyl-4-hydroxy-5H-furan-2-one], the half-maximal inhibitory concentration (IC50) came to 11 µM.
